The test system of this experiment is mantle cell lymphoma (MCL). In words: Clinical outcomes of MCL patients after brexucabtagene autoleucel by venetoclax bridging therapy. It is filed as in vivo, human. The procedure:
FIGS. 13A-13H illustrate the finding that chromosomal alterations of BCL-2 in lymphoma patients associate with poor prognosis of CART therapy. FIG. 13A is a schematic of the strategy used herein to investigate whether genetic alteration of BCL-2 affects CART's anti-tumor clinical response. Pre-CART biopsies from patients with LCL were analyzed by fluorescence in situ hybridization (FISH) to search for BCL-2 chromosomal aberration. […] FIG. 13F is a schematic of the strategy used herein to investigate the impact of venetoclax bridging therapy on CART19's clinical response in MCL patients. […]
For the large B cell lymphoma cohort, clinical data were collected from patients diagnosed with DLBCL not otherwise specified (NOS), high-grade B cell lymphoma (HGBCL) NOS, HGBCL with MYC and BCL-2 and/or BCL-6 rearrangements, and transformed follicular lymphoma treated at the University of Pennsylvania using two commercial CART19 products (tisagenlecleucel or axicabtagene ciloleucel, UPCC44420) or enrolled in the CTL019 clinical trial NCT02030834. Only patients evaluated for chromosomal alterations involving the BCL-2 locus by interim FISH analysis were included in the current study. […] Disease response was determined according to Lugano classification. […]

For `CC1(C)CCC(CN2CCN(c3ccc(C(=O)NS(=O)(=O)c4ccc(NCC5CCOCC5)c([N+](=O)[O-])c4)c(Oc4cnc5[nH]ccc5c4)c3)CC2)=C(c2ccc(Cl)cc2)C1` [venetoclax], the “complete response rate after brex-cel” value (bridging therapy including venetoclax (7/8)) is recorded as 87.5%. Where the note is “venetoclax bridging therapy before brex-cel”, the “patients in complete response at one year” value was determined as 100%.

The values above are taken from US20240335539A1, “MODULATION OF BCL-2 TO ENHANCE CHIMERIC ANTIGEN RECEPTOR CANCER IMMUNOTHERAPY EFFICACY” (The Trustees of the University of Pennsylvania, priority 2021, published 2024).
